Results taken from the supplement of paper PMC6723410.

tested on: GUMC-403; assay: viability at highest tested concentration (max response) relative to DMSO (% of DMSO control); higher = less cytotoxic; conditions: library / dose series: MIPE library, 11-point 1:3 dilution; top concentration 23 µM; 48 h
How it was run: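 Patient-derived GUMC-403 papilloma cells grown by conditional reprogramming were plated at 700/well in 5 μL F + Y medium in 1536-well plates and incubated overnight at 37 °C. They then received 23 nL of MIPE 4.0 compounds by pin tool (11-point 1:3 series) for 48 h. CellTiter-Glo luminescence was read on a ViewLux and normalised with DMSO wells as 100% and empty wells as 0%. The value is viability at the highest tested concentration relative to DMSO control.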

SMILES	viability
CC[C@H](/C=C/[C@@H](C)[C@H]1CC[C@H]2[C@@H]3CC=C4C[C@@H](O)CC[C@]4(C)[C@H]3CC[C@]12C)C(C)C	104

same assay, conditions: library / dose series: MIPE library, 11-point 1:3 dilution; top concentration 46.1 µM; 48 h

SMILES	viability
COCCOC(=O)C/1=C(C)/NC/2=C(C1C3=CC=CC(=C3)O)/C(=O)CC(C2)C4=C(OC)C=CC=C4 (stereo unspecified)	79.8
COC(=O)[C@@H]1[C@H]2C[C@H]3c4[nH]c5ccccc5c4CCN3C[C@@H]2CC[C@@H]1O	128
CN(C)CCc1ccc(O)cc1	118
CC(C)[C@@H](N(CCCN)C(=O)C1=CC=C(C)C=C1)C/2=C(\CC3=CC=CC=C3)C(=O)C4=C(O2)C=C(Cl)C=C4	119
CCCCC(F)(F)[C@@]1(O)CC[C@H]2[C@@H](CC(=O)[C@@H]2CCCCCCC(=O)O)O1	110
CNC(=O)c1ccccc1Sc1ccc2c(/C=C/c3ccccn3)n[nH]c2c1	104
CC1=CC=CC=C1N2\C(=N/C3=C(C(=CC=C3)C)C2=O)C[N]4C=NC5=C4N=CN=C5N	24.1
CC(=O)OCC(=O)[C@@]1(O)CC[C@H]2[C@@H]3CCC/4=C/C(=O)/C=C\[C@]4(C)[C@H]3[C@@H](O)C[C@]12C	123
CCOC(=O)c1ncn2c1CN(C)C(=O)c1cc(F)ccc1-2	108
Cc1ccc(Nc2cc(-c3cccc(N4C(=O)c5ccccc5C4=O)c3)ncn2)cc1N[S+](C)(=O)[O-]	117
CNc1nc(-c2ccc3c(N)n[nH]c3c2)cc(N2C[C@@H](C(=O)NC3CCCCC3)CC[C@H]2C)n1	87.8
Cc1c(C(=O)NN2CCCCC2)nn(-c2ccc(Cl)cc2Cl)c1-c1ccc(Cl)cc1	109
C[C@@H](N)c1ccc(C(=O)Nc2ccnc3[nH]ccc23)cc1	139
C[C@@H](c1ncncc1F)[C@](O)(Cn1cncn1)c1ccc(F)cc1F	96.3
COc1cc([C@@H]2c3cc4c(cc3[C@H](O)[C@H]3COC(=O)[C@H]23)OCO4)cc(OC)c1OC	115
O=C1NC(=O)/C(=C/c2ccc3c(c2)OC(F)(F)O3)S1	94
COc1ccc(CCN2CCN(CCCc3ccccc3)CC2)cc1OC	120
CNC(=O)C1=CC=C(C)C(=C1)N2C(=C/C(=C(/Br)C2=O)OCC3=C(F)C=C(F)C=C3)\C	109
Cn1cnc2c1c(=O)[nH]c(=O)n2C	127
Cc1cc(Nc2cc(N3CCN(C)CC3)nc(Sc3ccc(NC(=O)C4CC4)cc3)n2)[nH]n1	86.3
CCOc1cc(C(=O)Nc2ccc(Cl)c(-c3nc4ccccc4[nH]3)c2)cc(OCC)c1OCC	90.5
CC1=C(CC(=O)O)c2cc(F)ccc2/C1=C\c1ccc([S+](C)[O-])cc1 (stereo unspecified)	59.8
CC(C)(Sc1cc(C(C)(C)C)c(O)c(C(C)(C)C)c1)Sc1cc(C(C)(C)C)c(O)c(C(C)(C)C)c1	111
CC(C)C(=O)Nc1ncc(-c2cc(C(F)F)nn2-c2c(Cl)cccc2Cl)s1	90.8
C[C@@H](O)[C@@H]1[C@H]2[C@@H](C)\C(=C(/N2C1=O)C(=O)OCOC(=O)C(C)(C)C)SC3CN(C3)/C4=N/CCS4	78.1
CNC[C@H](O)[C@@H](O)[C@H](O)[C@H](O)CO	136
CCCCCCNC(=O)N1\C=C(F)/C(=O)NC1=O	106

SMILES	viability
Cc1ccc(NC(=O)c2ccc(CN3CCN(C)CC3)cc2)cc1Nc1nccc(-c2cccnc2)n1	127
CCOC(=O)\C1=C(/C)N\C2=C(C1C3=CC=C(C=C3)C4=CC=CC=C4)\C(=O)CC(C)(C)C2 (stereo unspecified)	82.6
OCCN1C[C@H](O)[C@@H](O)[C@H](O)[C@H]1CO	151
CCNC(=O)Nc1ccc(Oc2ncnc(N)c2/C=N/OC)cc1Cl	109
COc1cc2nccc(Oc3ccc(NC(=O)Nc4ccc(F)cc4F)c(F)c3)c2cc1OC	91.3
CCNC(=O)c1cc2c(-c3cc(OCCN4CCCC4)c(Cl)cc3Cl)nc(N)nc2s1	58.2
Cc1c(C(=O)Nc2cccc(C(F)(F)F)c2)cc(-c2ccccc2)n1CCCN1CCOCC1	98.9
COc1cc(C)c(/C=C/C(C)=C/C=C/C(C)=C/C(=O)O)c(C)c1C	101
Nc1ncnc2c1c(-c1cccc(OCc3ccccc3)c1)cn2C1CC(CN2CCCC2)C1 (stereo unspecified)	78.1
CN1CC(=O)\N=C1\NC(=O)NC2=CC(=CC=C2)Cl	91.6
CN1CC/C(CC1)=C3\c4ccccc4CC(=O)c2sccc23	97.2
CCC(CCCC)COC(=O)C(\C#N)=C(\c1ccccc1)c2ccccc2 (stereo unspecified)	113
CC(C)c1ccc(Cn2ccc3c4c(N)nc(NC5CC5)nc4ccc32)cc1	106
Cc1noc(N[S+](=O)([O-])c2ccc(N)cc2)c1C	130
Cc1nnc(N[S+](=O)([O-])c2ccc(N)cc2)s1	113
CC(C)N(CCCNC(=O)Nc1ccc(C(C)(C)C)cc1)C[C@H]1O[C@@H](n2cc(Br)c3c(N)ncnc32)[C@H](O)[C@@H]1O	89.1
CN1CCN(c2ccc([N+](=O)[O-])c3no[n+]([O-])c23)CC1	108
O=C(O)CCNc1cc(N2CCc3ccccc3CC2)nc(-c2ccccn2)n1	125
C[N]1C2=C(SC(=C2)[S+](C)[O-])C\3=C1C(=O)N(CC4=CC(=CC=C4)N)\N=C3 (stereo unspecified)	106
NC(=O)c1cccc2nc(-c3ccc([C@H]4CCCN4)cc3F)[nH]c12	116
CN1CCN(C2=Nc3cc(Cl)ccc3Nc3ccccc32)CC1	109
Cc1cccc(/C=N/Nc2cc(N3CCOCC3)nc(OCCc3ccccn3)n2)c1	87.4
NCCCCCC(=O)O	130
N#C/C(=C1/Nc2ccccc2S1)c1ccnc(OCc2ccc(CN3CCOCC3)cc2)n1	91.3
COC1=CC=CC(=C1/C2=N/CC3=C(N=C(NC4=CC(=C(C=C4)C(O)=O)OC)N=C3)C5=CC=C(Cl)C=C25)F	45.4
Cl.O[C@@H](CNC[C@H](O)[C@H]1CCc2cc(F)ccc2O1)[C@@H]1CCc2cc(F)ccc2O1	95.8
COc1cc2ncnc(Nc3cccc(Br)c3)c2cc1OC	81.6

SMILES	viability
C=C(C)[C@@H]1CC[C@]2(C)CC[C@]3(C)[C@H](CC[C@@H]4[C@@]5(C)CC[C@H](O)C(C)(C)[C@@H]5CC[C@]43C)[C@@H]12	135
FC1=C(C=C(C\C2=N\NC(=O)C3=C2C=CC=C3)C=C1)C(=O)N4CCN(CC4)C(=O)C5CC5	82.6
Cc1c(O)cccc1C(=O)N[C@@H](CSc1ccccc1)[C@H](O)CN1C[C@H]2CCCC[C@H]2C[C@H]1C(=O)NC(C)(C)C	126
CCN(CC)CCCC(C)Nc1nc(C)cc(Nc2ccc3nc(C)cc(N)c3c2)n1 (stereo unspecified)	106
O=C(O)c1cccc(-c2noc(-c3ccccc3F)n2)c1	118
COCCCOc1cc(C[C@@H](C[C@H](N)[C@@H](O)C[C@H](C(=O)NCC(C)(C)C(N)=O)C(C)C)C(C)C)ccc1OC	130
Nc1nc(OCc2ccccc2)c2nc[nH]c2n1	111
O=C(NCCCCN1CCOCC1)c1cc2ccccc2o1	106
C[S+](=O)([O-])N(Cc1ccco1)CC(O)Cn1c2ccccc2c2ccccc21 (stereo unspecified)	90.4
COc1ccccc1N1CCN(CCN(C(=O)C2CCCCC2)c2ccccn2)CC1	95.3
NNCCc1ccccc1	109
COc1nccc(-c2c(-c3ccc(F)cc3)ncn2C2CCC(O)CC2)n1 (stereo unspecified)	131
Oc1ccc([C@@H]2Oc3ccc(O)cc3[C@@H]3CCC[C@@H]32)cc1	96.3
Cc1ccc(CN2CCNCC2)cc1NC(=O)CNc1ccc(F)c(F)c1	98.9
COc1cc(-c2nn(C3CCC(N4CCN(C(C)=O)CC4)CC3)c3ncnc(N)c23)ccc1NC(=O)c1cc2ccccc2n1C (stereo unspecified)	78.2
CN(C)[C@H]\1[C@@H]2C[C@H]3C(=C(O)\[C@]2(O)C(=O)\C(=C1O)C(N)=O)/C(=O)C4=C(O)C=CC=C4[C@@]3(C)O	106
C/C1=C2/[N]3[Co+]456([OH])<-[N]7=C1[C@@H](CCC(N)=O)C(C)(C)/C7=C/C1=[N]->4C(=C(/C)C4=[N]->5[C@@](C)([C@H]3[C@H](CC(N)=O)[C@@]2(C)CCC(=O)NC[C@@H](C)OP(=O)([O-])O[C@H]2[C@@H](O)[C@@H](n3c[n]->6c5cc(C)c(C)cc53)O[C@@H]2CO)[C@@](C)(CC(N)=O)[C@@H]4CCC(N)=O)/[C@@](C)(CC(N)=O)[C@@H]1CCC(N)=O	91.2
CCc1cc(/C(C)=N/OCc2ccc(C3CCCCC3)c(C(F)(F)F)c2)ccc1CN1CC(C(=O)O)C1	116
CCC\C1=C\C(=O)NC(=S)N1	110
CC(=O)O[C@@]1(CC[C@H]2[C@@H]3\C=C(Cl)/C4=C/C(=O)[C@@H]5C[C@@H]5[C@]4(C)[C@H]3CC[C@]12C)C(C)=O	76.4
CCCCCCCCCCCCCC(=O)N[C@H](CO)[C@H](O)c1ccc([N+](=O)[O-])cc1	116
CC(C)(O)[C@H]1CC[C@@](C)([C@H]2[C@@H](O)C[C@@]3(C)[C@@H]4C[C@H](O[C@@H]5O[C@H](CO)[C@@H](O)[C@H](O)[C@H]5O)[C@H]5C(C)(C)[C@@H](O[C@@H]6OC[C@@H](O)[C@H](O)[C@H]6O)CC[C@@]56C[C@@]46CC[C@]23C)O1	119
C[S+](=O)([O-])c1cc(F)cc2c3c(n(Cc4ccc(Cl)cc4)c12)[C@@H](CC(=O)O)CC3	128
CCOC(=O)c1c(CSc2ccccc2)n(C)c2cc(Br)c(O)c(CN(C)C)c12	105
O=[S+]([O-])(F)Cc1ccccc1	84.1

same assay, conditions: library / dose series: MIPE library, 11-point 1:3 dilution; top concentration 92.2 µM; 48 h

SMILES	viability
Nc1ccn([C@H]2CS[C@@H](CO)O2)c(=O)n1	106
